Test results from patent EP1077942B1, “CARBOXY SUBSTITUTED CARBOXAMIDE DERIVATIVES AS TACHYKININ RECEPTOR ANTAGONISTS” (Aventis Pharmaceuticals Inc., priority 1998, dated 1999).
Where a name gives a salt, the structure may show the parent alone.

Experiments:
[1] = target: T1, NK1 receptor (Cavia porcellus, UniProt P30547); test: Antagonism of iodinated tachykinin binding to NK1 receptor (Example A); conditions: guinea pig lungs membranes; 125I-Bolton Hunter Lys-3 labeled substance P 0.1 nM; mean of several experiments
T1 construct: evaluated in guinea pig lungs (Keystone Biologicals, Cleveland, OH); tissue Keystone Biologicals, Cleveland, OH; host or cells: guinea pig lung membrane homogenate
T1 sequence (P30547 whole entry): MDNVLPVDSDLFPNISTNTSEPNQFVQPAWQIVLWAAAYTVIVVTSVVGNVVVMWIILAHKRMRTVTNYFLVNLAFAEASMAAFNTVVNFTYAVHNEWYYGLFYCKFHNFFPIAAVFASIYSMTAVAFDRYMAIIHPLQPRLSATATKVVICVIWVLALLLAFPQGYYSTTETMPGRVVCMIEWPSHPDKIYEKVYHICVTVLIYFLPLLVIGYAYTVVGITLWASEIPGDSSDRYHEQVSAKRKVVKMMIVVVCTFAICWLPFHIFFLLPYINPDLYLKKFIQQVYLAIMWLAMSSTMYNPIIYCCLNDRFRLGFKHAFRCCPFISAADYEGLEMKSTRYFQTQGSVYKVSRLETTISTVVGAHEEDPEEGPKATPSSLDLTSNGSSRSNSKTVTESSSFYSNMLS
Protocol: (§1) Antagonism of iodinated tachykinin binding to NK1 and NK2 receptors by putative antagonists
(§2) One skilled in the art can determine the NK1 receptor and NK2 receptor affinity in vitro as follows. The NK1 receptor affinity of tachykinin antagonists is evaluated in guinea pig lungs (Keystone Biologicals, Cleveland, OH) and affinity for the NK2 receptor is evaluated in HSKR-1 cells (which are mouse 3T3 fibroblasts expressing the human jejunal NK2 receptor). Tissues or cells are homogenized with a Polytron in 15 volumes of 50 mM Tris-HCl buffer (pH 7.4, 4°C) and centrifuged. The pellet is resuspended in Tris-HCl buffer and is centrifuged; the pellet is washed twice by resuspension. The final pellet is resuspended at a concentration of 40 mg/ml for tissues and 20 mg/ml for cells in incubation buffer and remains at room temperature for at least 15 min prior to use. […] Filter bound radioactivity is quantitated in a gamma counter. Nonspecific binding is defined as binding in the presence of 1 µM substance P or neurokinin A. Specific binding is calculated by subtracting nonspecific binding from total binding. Competition of iodinated SP or NKA binding by test compounds or standards is expressed as a percentage of this maximum binding. […]

[2] = target: T2, human jejunal NK2 receptor (Homo sapiens, UniProt P21452); test: Antagonism of iodinated tachykinin binding to NK2 receptor (Example A); conditions: HSKR-1 cells (mouse 3T3 fibroblasts expressing the human jejunal NK2 receptor); 125 iodohistidyl-1-neurokinin A 0.1 nM; mean of several experiments
T2 construct: expressed in transfected cells; host or cells: HSKR-1 cells (mouse 3T3 fibroblasts)
T2 sequence (P21452 1-398): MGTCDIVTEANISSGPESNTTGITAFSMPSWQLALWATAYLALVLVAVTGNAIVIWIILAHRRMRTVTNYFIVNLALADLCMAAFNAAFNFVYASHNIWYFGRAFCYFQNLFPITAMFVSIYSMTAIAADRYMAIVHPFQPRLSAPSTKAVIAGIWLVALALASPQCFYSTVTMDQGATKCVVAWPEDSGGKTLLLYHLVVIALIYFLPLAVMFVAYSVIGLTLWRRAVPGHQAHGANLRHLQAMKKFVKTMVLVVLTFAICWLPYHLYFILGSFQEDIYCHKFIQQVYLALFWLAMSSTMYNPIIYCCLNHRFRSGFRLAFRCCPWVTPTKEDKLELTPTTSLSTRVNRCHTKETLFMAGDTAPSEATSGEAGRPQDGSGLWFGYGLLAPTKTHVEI
Protocol: as §1, §2

Structure (SMILES): CCOC(=O)CN1CCN(C(=O)C2(c3ccccc3)CCN(CC[C@H](CN(C)C(=O)c3cc(-n4cnnn4)ccc3OC)c3ccc(Cl)c(Cl)c3)CC2)CC1 [Example 1.2, (S)-N-methyl-N-(4-(4-phenyl-4-((4-carboethoxymethylpiperazin-1-yl)carboxamido)piperidin-1-yl) 2-(3,4-dichlorophenyl)butyl)-2-methoxy-5-(1H-tetrazol-1-yl)benzamide hydrochloric acid salt]
- IC50 [1]: 0.023 µM
- IC50 [2]: 0.178 µM
